Test results published in patent US20170217976A1, “6-(AMINO ACID)-MORPHINAN DERIVATIVES IN COMBINATION WITH PERMEATION […] FOR USE AS AN ORALLY, […], TRA[…] NASALLY AD[…]” (C[…], priority 2014, published 2017).
Where two headings read alike, the source gives them in different places.

Key:
[1] = target: T1, KOR (Cavia porcellus, UniProt P41144); test: Opioid receptor binding, KOR, guinea pig brain membranes
T1 construct: from tissue

[2] = target: T2, MOR (Rattus norvegicus, UniProt P33535); test: Opioid receptor binding, MOR, rat brain membranes
T2 construct: from tissue

[3] = target: T3, DOR (Rattus norvegicus, UniProt P33533); test: Opioid receptor binding, DOR, rat brain membranes
T3 construct: from tissue

[4] = Binding Ki KOR, Table 2-6, guinea pig brain membranes
[5] = Binding Ki MOR, Table 2-6, rat brain membranes
[6] = Binding Ki DOR, Table 2-6, rat brain membranes
[7] = in vitro binding assay, guinea pig brain membranes, read-out: Binding Ki (nM) KOR
[8] = in vitro binding assay, rat brain membranes, read-out: Binding Ki (nM) MOR
[9] = in vitro binding assay, rat brain membranes, read-out: Binding Ki (nM) DOR
[10] = Binding Ki (nM) KOR, in vitro binding assay, guinea pig brain membranes
[11] = Binding Ki (nM) MOR, in vitro binding assay, rat brain membranes
[12] = Binding Ki (nM) DOR, in vitro binding assay, rat brain membranes
[13] = Binding Ki KOR, Table 1-6, guinea pig brain membranes
[14] = Binding Ki MOR, Table 1-6, rat brain membranes
[15] = Binding Ki DOR, Table 1-6, rat brain membranes
[16] = Binding Ki KOR, Table 1-4, guinea pig brain membranes
[17] = Binding Ki MOR, Table 1-4, rat brain membranes
[18] = Binding Ki DOR, Table 1-4, rat brain membranes

T2 sequence (P33535 whole entry): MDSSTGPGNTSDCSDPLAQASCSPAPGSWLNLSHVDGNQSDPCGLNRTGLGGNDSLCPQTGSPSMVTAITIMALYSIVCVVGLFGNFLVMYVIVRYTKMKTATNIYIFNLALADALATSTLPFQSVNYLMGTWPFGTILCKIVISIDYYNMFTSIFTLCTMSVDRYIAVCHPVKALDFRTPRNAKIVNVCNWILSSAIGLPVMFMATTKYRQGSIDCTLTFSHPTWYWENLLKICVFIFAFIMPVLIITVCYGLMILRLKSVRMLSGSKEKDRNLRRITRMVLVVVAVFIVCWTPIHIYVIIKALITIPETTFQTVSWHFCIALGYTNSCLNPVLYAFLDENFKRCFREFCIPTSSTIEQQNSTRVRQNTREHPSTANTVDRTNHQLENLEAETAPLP
T1 sequence (P41144 whole entry): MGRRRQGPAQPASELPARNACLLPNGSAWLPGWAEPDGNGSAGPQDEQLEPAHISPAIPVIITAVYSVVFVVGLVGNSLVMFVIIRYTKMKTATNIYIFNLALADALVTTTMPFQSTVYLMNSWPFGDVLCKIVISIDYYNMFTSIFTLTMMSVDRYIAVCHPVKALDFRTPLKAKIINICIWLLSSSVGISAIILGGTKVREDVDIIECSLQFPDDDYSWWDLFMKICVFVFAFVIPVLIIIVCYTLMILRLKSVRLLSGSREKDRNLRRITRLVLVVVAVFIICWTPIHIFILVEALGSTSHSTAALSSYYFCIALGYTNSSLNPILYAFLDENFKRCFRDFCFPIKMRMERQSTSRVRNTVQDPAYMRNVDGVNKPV
T3 sequence (P33533 whole entry): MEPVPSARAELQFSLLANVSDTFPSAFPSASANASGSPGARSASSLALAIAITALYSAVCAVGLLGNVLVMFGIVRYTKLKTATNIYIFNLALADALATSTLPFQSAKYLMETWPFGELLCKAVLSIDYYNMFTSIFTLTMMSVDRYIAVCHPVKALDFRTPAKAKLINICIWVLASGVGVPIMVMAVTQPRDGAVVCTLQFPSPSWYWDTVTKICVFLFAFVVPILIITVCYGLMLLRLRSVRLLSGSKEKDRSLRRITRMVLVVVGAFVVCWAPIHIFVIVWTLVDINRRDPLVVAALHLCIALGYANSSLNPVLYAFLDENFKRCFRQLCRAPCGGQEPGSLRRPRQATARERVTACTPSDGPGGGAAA

Compound | Ki [1, 4] | Ki [2, 5] | Ki [3, 6] | Ki [1, 10] | Ki [2, 11] | Ki [3, 12] | also measured
CO[C@@]12CC[C@@H](N[C@H](C(=O)OC(C)(C)C)C(C)C)[C@@H]3Oc4c(O)ccc5c4[C@@]31CCN(CC1CC1)[C@@H]2C5 [69-tBu ester] | 4.32 nM | 1.23 nM | 0.7 nM |  |  |  | 
CCCCCCCCOC(=O)CN[C@H]1CC[C@@]2(OC)[C@H]3Cc4ccc(O)c5c4[C@@]2(CCN3C)[C@H]1O5 [HS730-nOc ester] |  |  |  |  |  |  | Ki [1, 7]: 2.97 nM; Ki [2, 8]: 1.29 nM; Ki [3, 9]: 3.23 nM
CO[C@@]12CC[C@H](N[C@@H](CO)C(=O)OC(C)(C)C)[C@@H]3Oc4c(O)ccc5c4[C@@]31CCN(C)[C@@H]2C5 [36-t-Bu ester] |  |  |  | 6.2 nM | 0.2 nM | 0.17 nM | 
CO[C@@]12CC[C@H](N[C@H](C(=O)OC(C)(C)C)C(C)C)[C@@H]3Oc4c(O)ccc5c4[C@@]31CCN(CC1CC1)[C@@H]2C5 [68-tBu ester] |  |  |  |  |  |  | Ki ([1]; Table 2-6, guinea pig brain membranes, read-out: Binding Ki KOR): 3.13 nM; Ki ([2]; Table 2-6, rat brain membranes, read-out: Binding Ki MOR): 1.81 nM; Ki ([3]; Table 2-6, rat brain membranes, read-out: Binding Ki DOR): 0.85 nM
CCO[C@@]12CC[C@H](N[C@@H](Cc3ccccc3)C(=O)O)[C@@H]3Oc4c(O)ccc5c4[C@@]31CCN(CC1CC1)[C@@H]2C5 [Compound 55] | 2.6 nM | 0.35 nM | 0.7 nM |  |  |  | 
CO[C@@]12CC[C@@H](N[C@@H](CCCCN)C(=O)OC(C)(C)C)[C@@H]3Oc4c(O)ccc5c4[C@@]31CCN(C)[C@@H]2C5 [39-t-Bu ester] |  |  |  |  |  |  | Ki [1, 7]: 21.4 nM; Ki [2, 8]: 0.58 nM; Ki [3, 9]: 0.88 nM
COC12CCC(NC(C(=O)O)C(C)C)C3Oc4c(O)ccc5c4C31CCN(CC1CC1)C2C5 (single isomer, unassigned) [Compound 71] | 23 nM | 1.52 nM | 0.35 nM |  |  |  | Ki [1, 13]: 23 nM; Ki [2, 14]: 1.52 nM; Ki [3, 15]: 0.35 nM
CCOC(=O)CNC1CCC2(OCCCc3ccccc3)C3Cc4ccc(O)c5c4C2(CCN3C)C1O5 (stereo not drawn) [7-Et ester] |  |  |  |  |  |  | Ki [1, 7]: 0.44 nM; Ki [2, 8]: 0.43 nM; Ki [3, 9]: 0.25 nM
CO[C@@]12CC[C@H](N[C@@H](Cc3ccccc3)C(=O)OC(C)(C)C)[C@@H]3Oc4c(O)ccc5c4[C@@]31CCN(CC1CC1)[C@@H]2C5 [57-tBu ester] | 1.78 nM | 0.68 nM | 0.58 nM |  |  |  | 
CCO[C@@]12CC[C@@H](N[C@@H](Cc3ccccc3)C(=O)O)[C@@H]3Oc4c(O)ccc5c4[C@@]31CCN(CC1CC1)[C@@H]2C5 [Compound 56] | 11.6 nM | 1.04 nM | 1.76 nM |  |  |  | 
CC(NC1CCC2(O)C3Cc4ccc(O)c5c4C2(CCN3C)C1O5)C(=O)O (stereo not drawn) [Compound 13] |  |  |  |  |  |  | Ki ([1]; Table 1-4, guinea pig brain membranes, read-out: Binding Ki KOR): 710 nM; Ki ([2]; Table 1-4, rat brain membranes, read-out: Binding Ki MOR): 3 nM; Ki ([3]; Table 1-4, rat brain membranes, read-out: Binding Ki DOR): 170 nM
CO[C@@]12CC[C@@H](N[C@H](C(=O)OC(C)(C)C)[C@@H](C)O)[C@@H]3Oc4c(O)ccc5c4[C@@]31CCN(C)[C@@H]2C5 [35-t-Bu ester] |  |  |  | 102 nM | 0.51 nM | 0.65 nM | 
CO[C@@]12CC[C@@H](N[C@@H](CC(N)=O)C(=O)OC(C)(C)C)[C@@H]3Oc4c(O)ccc5c4[C@@]31CCN(C)[C@@H]2C5 [27-t-Bu ester] |  |  |  | 75.8 nM | 0.6 nM | 0.66 nM | 
CO[C@@]12CC[C@@H](N[C@@H](Cc3c[nH]c4ccccc34)C(=O)OC(C)(C)C)[C@@H]3Oc4c(O)ccc5c4[C@@]31CCN(C)[C@@H]2C5 [46-t-Bu ester] |  |  |  |  |  |  | Ki [1, 7]: 9.89 nM; Ki [2, 8]: 0.26 nM; Ki [3, 9]: 0.36 nM
CCO[C@@]12CC[C@@H](NCC(=O)O)[C@@H]3Oc4c(O)ccc5c4[C@@]31CCN(C)[C@@H]2C5 [Compound 6] |  |  |  | 102 nM | 0.95 nM | 5.31 nM | Ki [1, 16]: 102 nM; Ki [2, 17]: 0.95 nM; Ki [3, 18]: 5.31 nM
CO[C@@]12CC[C@H](N[C@@H](C)C(=O)OC(C)(C)C)[C@@H]3Oc4c(O)ccc5c4[C@@]31CCN(C)[C@@H]2C5 [1-t-Bu ester] |  |  |  | 11.3 nM | 0.29 nM | 0.41 nM | 

Compound | Ki [1, 4] | Ki [2, 5] | Ki [3, 6] | Ki [1, 10] | Ki [2, 11] | Ki [3, 12] | also measured
COC12CCC(NC(C(=O)O)C(C)C)C3Oc4c(O)ccc5c4C31CCN(CC1CC1)C2C5 (single isomer, unassigned) [Compound 68] | 3.34 nM | 0.44 nM | 0.53 nM |  |  |  | Ki [1, 13]: 3.34 nM; Ki [2, 14]: 0.44 nM; Ki [3, 15]: 0.53 nM
CO[C@@]12CC[C@H](N[C@@H](C(=O)OC(C)(C)C)C(C)C)[C@@H]3Oc4c(O)ccc5c4[C@@]31CCN(CC1CC1)[C@@H]2C5 [70-tBu ester] | 18.8 nM | 0.63 nM | 0.51 nM |  |  |  | 
COC12CCC(NC(C(=O)O)C(C)C)C3Oc4c(O)ccc5c4C31CCN(C)C2C5 (single isomer, unassigned) [Compound 31] |  |  |  | 159 nM | 1.02 nM | 1.68 nM | Ki [1, 16]: 159 nM; Ki [2, 17]: 1.02 nM; Ki [3, 18]: 1.68 nM
CO[C@@]12CC[C@@H](N[C@@H](CCC(=O)O)C(=O)O)[C@@H]3Oc4c(O)ccc5c4[C@@]31CCN(CC1CC1)[C@@H]2C5 [Compound 75] | 12.9 nM | 3.35 nM | 2.77 nM |  |  |  | Ki [1, 13]: 12.9 nM; Ki [2, 14]: 3.35 nM; Ki [3, 15]: 2.77 nM
COC12CCC(NC(C(=O)O)C(C)C)C3Oc4c(O)ccc5c4C31CCN(CC1CC1)C2C5 (single isomer, unassigned) [Compound 69] | 3 nM | 0.66 nM | 1.35 nM |  |  |  | Ki [1, 13]: 3 nM; Ki [2, 14]: 0.66 nM; Ki [3, 15]: 1.35 nM
CO[C@@]12CC[C@@H](N[C@@H](CCC(N)=O)C(=O)OC(C)(C)C)[C@@H]3Oc4c(O)ccc5c4[C@@]31CCN(C)[C@@H]2C5 [18-t-Bu ester] |  |  |  | 163 nM | 1.65 nM | 1.35 nM | 
C[C@H](N[C@@H]1CC[C@@]2(O)[C@H]3Cc4ccc(O)c5c4[C@@]2(CCN3C)[C@H]1O5)C(=O)O [Compound 14] |  |  |  |  |  |  | Ki [1, 16]: 542 nM; Ki [2, 17]: 11 nM; Ki [3, 18]: 78.7 nM
CO[C@@]12CC[C@H](NCCCC(=O)OC(C)(C)C)[C@@H]3Oc4c(O)ccc5c4[C@@]31CCN(C)[C@@H]2C5 [15-t-Bu ester] |  |  |  | 8.82 nM | 0.22 nM | 7.99 nM | 
CO[C@@]12CC[C@@H](NCCC(=O)OC(C)(C)C)[C@@H]3Oc4c(O)ccc5c4[C@@]31CCN(C)[C@@H]2C5 [22-t-Bu ester] |  |  |  | 7.54 nM | 0.35 nM | 0.23 nM | 
COC12CCC(NCCC(=O)O)C3Oc4c(O)ccc5c4C31CCN(C)C2C5 (single isomer, unassigned) [Compound 22] |  |  |  | 71.4 nM | 1.04 nM | 13.9 nM | Ki [1, 16]: 71.4 nM; Ki [2, 17]: 1.04 nM; Ki [3, 18]: 13.9 nM
CC(C)(C)OC(=O)[C@H](Cc1ccccc1)N[C@H]1CC[C@@]2(O)[C@H]3Cc4ccc(O)c5c4[C@@]2(CCN3CC2CC2)[C@H]1O5 [59-tBu ester] | 5 nM | 1 nM | 2.15 nM |  |  |  | 
CCC(C)C(NC1CCC2(OC)C3Cc4ccc(O)c5c4C2(CCN3C)C1O5)C(=O)OC(C)(C)C (single isomer, unassigned) [42-t-Bu ester] |  |  |  | 29.2 nM | 1.04 nM | 1 nM | 
CCO[C@@]12CC[C@H](N[C@@H](Cc3ccccc3)C(=O)OC(C)(C)C)[C@@H]3Oc4c(O)ccc5c4[C@@]31CCN(CC1CC1)[C@@H]2C5 [55-tBu ester] | 4.12 nM | 0.63 nM | 2.38 nM |  |  |  | 
COC12CCC(NCCC(=O)O)C3Oc4c(O)ccc5c4C31CCN(C)C2C5 (single isomer, unassigned) [Compound 21] |  |  |  | 182 nM | 1.3 nM | 60 nM | Ki [1, 16]: 182 nM; Ki [2, 17]: 1.3 nM; Ki [3, 18]: 60 nM
CC[C@H](C)[C@H](N[C@@H]1CC[C@@]2(OC)[C@H]3Cc4ccc(O)c5c4[C@@]2(CCN3CC2CC2)[C@H]1O5)C(=O)O [Compound 78] | 9.49 nM | 1.62 nM | 1.44 nM |  |  |  | 
CO[C@@]12CC[C@H](N[C@@H](CC(C)C)C(=O)OC(C)(C)C)[C@@H]3Oc4c(O)ccc5c4[C@@]31CCN(C)[C@@H]2C5 [40-t-Bu ester] |  |  |  | 8.07 nM | 0.087 nM | 0.13 nM | 
